Data reported in patent US8318781B2, “G-protein-conjugated receptor agonist” (Japan Science and Technology Agency, priority 2007, dated 2012).
Entries after “also recorded” stand apart in the source; their conditions may differ. Where two headings read alike, the source gives them in different places.

Legend:
Format in all cases: cell-based
human GPR40 (hGPR40) [1] = biological target: T1, human GPR40 (hGPR40) (Homo sapiens, UniProt O14842); test: Determination of intracellular Ca2+ concentration (FLIPR), cell line TXGPR40; conditions: for agonistic activity for GPR40 (in words): cells in which GPR40 has been transgenically expressed; for [Ca^2+]/GPR40 10 μM (ratio vs. LA): relative fluorescence intensity vs LA at 10 μM
T1 construct: expressed in transfected cells; doxycycline-inducible expression vector
Method: (§1) (1) In this test, The cell lines TXGPR40, TXGPR120 and GPR120/Flp-in were plated onto a collagen-coated black 96-well plate in 2×10^5 cells/well. The 96-well plates containing the cells were centrifuged and treated with Doxycycline (final concentration 10 μg/mL), incubated in a CO2 incubator for 21 hours, then used for assay.
(§2) (2) The ligand used in this test includes NCP04, NCP14, NCG20, NCG21, NCG22, NCG23, NCP02, NCP03, NCP05, NCP06, NCG14, NCG17, NCG19, NCG28, NCG29, NCG30, NCG31, NCG34, NCG35, NCG37, NCG38, NCG44, NCG45, NCG46, and NCG54. Each ligand was dissolved in DMSO and adjusted to the concentration of 10 mM, then diluted with Hanks' Balanced Salt Solution (pH 7.4) containing 20 mM HEPES (referred to as FLIPR buffer hereinafter) to the final concentration of 1 to 100 μM. 1% DMSO was used as the negative control, and LA was used as the positive control.
(§3) The ligands and controls were placed in different 96-well plates from the plates for the cells.
(§4) (3) The 96-well plate containing the cells was removed from the CO2 incubator. A fluorescent dye prepared in a twofold higher concentration (Ca Assay Kit Component A diluted with FLIPR Buffer) was added in 50 μL/well, then allowed to stand in the dark at room temperature for one hour.
(§5) (4) After one hour, the 96-well plate containing the cells and the 96-well plate in which ligands and controls were prepared were set on FLIPR (Fluorometric Imaging Plate Reader) for determination.
(§6) (5) Fluorometry using FLIPR was carried out at a laser output of 1.0 W for five minutes. […] after the start of the determination, the ligand (25 μL) was added dropwise to the cell plate at a rate of 50 μL/sec. The intensity of fluorescence was automatically digitized by the application program installed in the FLIPR from the image taken by the CCD camera (with exposure time of 0.40 sec). The interval of data sampling was one second for the initial one minute after the start of operation, and six seconds for the subsequent four minutes.
(§7) (6) The maximum fluorescence intensity was obtained from the data showing the change in the fluorescence intensity over time observed in each well. The maximum fluorescence intensity was plotted against ligand concentration, and pEC50 was calculated. The ratio of the fluorescence intensity for each ligand to LA at 10 μM was calculated as the relative intensity of each ligand.

human GPR120 (hGPR120) [2] = biological target: T2, human GPR120 (hGPR120) (Homo sapiens, UniProt Q5NUL3); test: Determination of intracellular Ca2+ concentration (FLIPR), cell line GPR120/Flp-in; conditions: for [Ca^2+]/GPR120/Flp-In 10 μM (ratio vs. LA): relative fluorescence intensity vs LA at 10 μM
T2 construct: expressed in transfected cells; doxycycline-inducible expression vector
T2 sequence (Q5NUL3 1-361): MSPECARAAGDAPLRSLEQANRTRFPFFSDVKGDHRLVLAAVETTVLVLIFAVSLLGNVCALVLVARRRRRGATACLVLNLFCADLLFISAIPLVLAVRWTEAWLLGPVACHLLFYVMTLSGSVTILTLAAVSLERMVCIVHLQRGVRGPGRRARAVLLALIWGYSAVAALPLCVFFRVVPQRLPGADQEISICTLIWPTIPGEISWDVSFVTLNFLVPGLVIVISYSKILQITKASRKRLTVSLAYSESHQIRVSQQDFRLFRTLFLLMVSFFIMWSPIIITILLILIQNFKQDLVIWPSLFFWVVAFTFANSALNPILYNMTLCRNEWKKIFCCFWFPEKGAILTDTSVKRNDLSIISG
Method: as §1, §2, §3, §4, §5, §6, §7

human GPR120 (hGPR120) [3] = biological target: T2, human GPR120 (hGPR120); test: ERK assay, screening for GPR120 ligands in cell line TXGPR120;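 for ERK/GPR120 10 μM: signals normalized between DMSO and PMA controls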; conditions: TXGPR120 cells; for ERK activation for GPR120 (in words): FIGS. 5-8; for ERK/GPR120 10 μM: ligand 10 μM; for ERK/GPR120 10 μM / ERK/GPR120 100 μM: class relative to LA; for ERK/GPR120 100 μM: ligand 100 μM
Method: (§8) This Test 1 was carried out by using the following materials and methods.
(§9) (1) In this test, the cell lines TXGPR40 and TXGPR120 were plated in 35-mm dishes in 5×10^5 cells/per dish.
(§10) Each ligand was dissolved in DMSO, diluted tenfold with the medium to make the total amount of 100 μl. DMSO was used as the negative control, and PMA (phorbol-12-myristate-13-acetate) was used as the positive control.
(§11) (3) The medium was removed from the dish of the cell to reduce the total amount of liquid to 0.9 ml.
(§12) (4) The ligand solution was added dropwise to the cell solution, and dispersed by gently shaking the dish, and allowed to react at room temperature.
(§13) (5) After 5 minutes of reaction, the medium was discarded, and the remaining medium on the dish was removed on ice using an aspirator.
(§14) (6) 150 μl of Lysis buffer (50 mM HEPES (pH 7.0), 150 mM NaCl, 10% glycerol, 1% NonidetP-40, 2 mM MgCl2, 1 mM EDTA, 100 mM NaF, 10 mM sodium phosphate, 1 mM Na3VO4, 20 mM β-glycerophosphate, and Proteinase inhibitor) were added, then the cells were collected using a cell scraper.
(§15) (1) The crude enzyme solution mixed with SDS Sample Buffer was subjected to ultrasonication with a sonifier, then incubated at 90° C. for five minutes.
(§16) (2) The mixture was vortexed and centrifuged at 15,000 rpm for five minutes at 4° C.
(§17) (3) The supernatant of the centrifuged sample was applied to two 7.5% acrylamide gel slabs placed in an electrophoresis tank filled with 1×SDS-PAGE Running Buffer (25 mM Tris, 0.2 M Glycin, and 1% SDS). Electrophoresis was carried out under a constant current of 40 mA for about 80 to 90 minutes.
(§18) (1) A PVDF membrane cut in the same size as the gel slab was immersed in methanol for about 15 seconds and then shaken in Transfer Buffer C solution (25 mM Tris, 0.02% SDS, 2% methanol and 40 mM 6-aminohexanoic acid) at room temperature to swell for 15 minutes. Filter paper for blotting was cut into a 10-cm square.
(§19) (2) On the blotting apparatus were placed sequentially two pieces of filter paper immersed in A solution (0.3 M Tris, 0.02% SDS and 2% methanol), two pieces of filter paper immersed in B solution (25 mM Tris, 0.02% SDS and 2% methanol), and the membrane thereon. The gel slab after electrophoresis, and finally two pieces of filter paper immersed in C solution was placed thereon, and the apparatus was closed.
(§20) (3) The protein was transferred to the membrane at 15 V for 30 minutes.
(§21) (1) The following procedure was all carried out at room temperature. After the protein transfer, the membrane was placed into a vial containing 1×TTBS (0.2 M Tris, 1.5 M NaCl, 0.2% Tween 20) and washed for 15 minutes.
(§22) (2) TTBS was discarded, and about 10 ml of Block Ace was added and blocked on a shaker for one hour.
(§23) (1) The primary antibodies (p44/42 MAP Kinase Antibody and Phospho-p44/42 MAP Kinase Antibody) were each diluted 1000-fold with TTBS.
(§24) (2) After blocking, the Block Ace solution was removed, the solution of the primary antibody was added and allowed to react on the shaker for two hours.
(§25) (1) The secondary antibody (Anti-rabbit Ig, Horseradish Peroxidase linked F(ab′)2 fragments) was diluted 5000-fold with TTBS.
(§26) (2) The primary antibody solution was removed and the membrane was washed three times on the shaker in TTBS for five to ten minutes each.
(§27) (3) TTBS was removed and the solution of secondary antibody was added and left for 1 hour on the shaker.
(§28) (1) 2 ml each of Detection Reagent 1 and Detection Reagent 2 from ECL kit were mixed together on ice.
(§29) (2) The solution of secondary antibody was removed from the membrane reacted with the secondary antibody and then washed three times on the shaker in TTBS for five minutes each.
(§30) (3) The liquid was thoroughly removed from the membrane, which was then placed in a plastic bag, and 2 ml of the Detection Reagent mixture was added per each membrane.
(§31) (4) The membrane was kept in contact with a film in the cassette for one to five minutes, and the film was developed using an automatic developing machine.

human GPR120 (hGPR120) [4] = biological target: T2, human GPR120 (hGPR120); test: Determination of intracellular Ca2+ concentration (FLIPR), cell line TXGPR120; conditions: for agonistic activity for hGPR120 (in words): cells in which GPR120 has been transgenically expressed; for [Ca^2+]/GPR120 10 μM (ratio vs. LA): relative fluorescence intensity vs LA at 10 μM, TXGPR120 cells
Method: as §1, §2, §3, §4, §5, §6, §7

human GPR40 (hGPR40) [5] = biological target: T1, human GPR40 (hGPR40); test: ERK assay, screening for GPR40 ligands in cell line TXGPR40; conditions: TXGPR40 cells; for ERK activation for GPR40 (in words): FIGS. 1-4; for ERK/GPR40 10 μM: ligand 10 μM; for ERK/GPR40 10 μM / ERK/GPR40 100 μM: class relative to LA; for ERK/GPR40 100 μM: ligand 100 μM
Method: as §8, §9, §10, §11, §12, §13, §14, §15, §16, §17, §18, §19, §20, §21, §22, §23, §24, §25, §26, §27, §28, §29, §30, §31

[6] = TXGPR40 cells, maximum fluorescence intensity vs ligand concentration, read-out: [Ca^2+]/GPR40 pEC50 (converted)
[7] = GPR120/Flp-in cells, maximum fluorescence intensity vs ligand concentration, read-out: [Ca^2+]/GPR120/Flp-In pEC50 (converted)

T1 sequence (O14842 whole entry): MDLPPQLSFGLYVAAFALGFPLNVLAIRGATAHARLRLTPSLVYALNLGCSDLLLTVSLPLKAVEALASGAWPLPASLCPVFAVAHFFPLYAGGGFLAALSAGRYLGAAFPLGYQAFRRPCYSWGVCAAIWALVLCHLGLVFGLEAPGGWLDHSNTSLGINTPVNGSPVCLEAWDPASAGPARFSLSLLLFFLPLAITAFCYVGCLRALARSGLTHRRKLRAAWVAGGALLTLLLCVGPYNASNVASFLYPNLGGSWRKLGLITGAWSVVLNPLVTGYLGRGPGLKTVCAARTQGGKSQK

Row | SMILES | EC50 (human GPR40 (hGPR40) [1]; [6]) [µM] | EC50 (human GPR120 (hGPR120) [2]; [7]) [µM] | ERK activation for GPR120 (in words) (human GPR120 (hGPR120) [3]) | ERK/GPR120 10 μM (human GPR120 (hGPR120) [3]) | ERK/GPR120 100 μM (human GPR120 (hGPR120) [3]) | agonistic activity for hGPR120 (in words) (human GPR120 (hGPR120) [4]) | [Ca^2+]/GPR120 10 μM (ratio vs. LA) (human GPR120 (hGPR120) [4]) | agonistic activity for GPR40 (in words) (human GPR40 (hGPR40) [1]) | [Ca^2+]/GPR40 10 μM (ratio vs. LA) (human GPR40 (hGPR40) [1]; TXGPR40 cells) | ERK/GPR40 10 μM (human GPR40 (hGPR40) [5]) | ERK/GPR40 100 μM (human GPR40 (hGPR40) [5]) | [Ca^2+]/GPR120/Flp-In 10 μM (ratio vs. LA) (human GPR120 (hGPR120) [2]; GPR120/Flp-in cells) | EC50 (human GPR120 (hGPR120) [4]) [µM] | EC50 (human GPR40 (hGPR40) [1]) [µM] | EC50 (human GPR120 (hGPR120) [2]) [µM] | ERK activation for GPR40 (in words) (human GPR40 (hGPR40) [5])
1 | O=C(O)CCc1ccc(OCCCN(c2ccccc2)c2ccccn2)cc1 [NCG28] | 1.12 | 6.76 | activates ERK | ++ (++ denotes 50 to 100% of LA) | +++ (+++ denotes a higher value than LA) | exhibit a similar effect | 0.02 | showed a specific reactivity | 1.37 | +++ (+++ denotes a higher value than LA) | +++ (+++ denotes a higher value than LA) | 0.54 |  |  |  | activates ERK at lower concentrations; also recorded: strongly activated ERK
2 | O=C(O)CCCc1ccc(OCCN(c2ccccc2)c2ccccc2)cc1 [NCG29] |  |  | strongly activate ERK | +++ (+++ denotes a higher value than LA) | +++ (+++ denotes a higher value than LA) | exhibit a similar effect | 0.85 | showed a specific reactivity | 0.21 | ++ (++ denotes 50 to 100% of LA) | +++ (+++ denotes a higher value than LA) | 0.88 | 12 | 20.9 | 4.27 | strongly activated ERK
3 | O=C(O)CCCc1ccc(OCCN(c2cccnc2)c2ccccn2)cc1 [NCG45] |  | 10 |  | + (+ denotes 0 to 100% of LA) | ++ (++ denotes 50 to 100% of LA) | exhibit a similar effect | 0.01 |  | 0.01 |  |  | 0.65 |  |  |  | 

Second part, led by results:

Row | EC50 (human GPR40 (hGPR40) [1]; [6]) [µM] | EC50 (human GPR120 (hGPR120) [2]; [7]) [µM] | ERK activation for GPR120 (in words) (human GPR120 (hGPR120) [3]) | ERK/GPR120 10 μM (human GPR120 (hGPR120) [3]) | ERK/GPR120 100 μM (human GPR120 (hGPR120) [3]) | agonistic activity for hGPR120 (in words) (human GPR120 (hGPR120) [4]) | [Ca^2+]/GPR120 10 μM (ratio vs. LA) (human GPR120 (hGPR120) [4]) | agonistic activity for GPR40 (in words) (human GPR40 (hGPR40) [1]) | [Ca^2+]/GPR40 10 μM (ratio vs. LA) (human GPR40 (hGPR40) [1]; TXGPR40 cells) | ERK/GPR40 10 μM (human GPR40 (hGPR40) [5]) | ERK/GPR40 100 μM (human GPR40 (hGPR40) [5]) | [Ca^2+]/GPR120/Flp-In 10 μM (ratio vs. LA) (human GPR120 (hGPR120) [2]; GPR120/Flp-in cells) | EC50 (human GPR120 (hGPR120) [4]) [µM] | EC50 (human GPR40 (hGPR40) [1]) [µM] | EC50 (human GPR120 (hGPR120) [2]) [µM] | SMILES | ERK activation for GPR40 (in words) (human GPR40 (hGPR40) [5])
4 | 20.4 | 19.1 |  |  |  |  |  |  |  |  |  |  |  |  |  | CCCCN(CCOc1ccc(CCCCC(=O)O)cc1)c1ccccn1 [NCG22, 5-{4-[2-(2-butylpyridinylamino)ethoxy]phenyl}pentanoic acid] | 
5 |  |  |  |  |  | exhibit a similar effect |  |  |  |  |  |  |  |  |  | CCCCCCN(CCOc1ccc(CCC(=O)O)cc1)c1ccccn1 [NCP06] | 
